Test results from patent US9963467B2, “Boronic acid derivatives and therapeutic uses thereof” (Rempex Pharmaceuticals, Inc., priority 2014, dated 2018).

How the values were obtained:
KP1005 (CTX-M-14) = assay: Tigemonam potentiation (MPC@4), KP1005; format: cell-based; conditions: BLI with tigemonam at 4 μg/mL
[1] = Monomer content of pH adjusted aqueous solutions (LC-UV); format: physicochemical; conditions: pH adjusted to 7.6 to 8, LC-UV; for % Monomer in 1 mg/mL salt solution: 1 mg/mL aqueous salt solution
Method: Boronic acid containing compounds are known to undergo oligomerization. The presence of oligomers can greatly complicate drug development, as they represent new chemical species whose content must be controlled and qualified by testing in toxoicology studies. The monomer content of compounds was evaluated by adjusting aqueous solutions to physiological pH at various concentrations. The monomer content of pH adjusted solutions was measured using LC-UV. Test compounds were weighed out into a 1.5 mL Eppendorf tube. A solution of water was prepared in 1.00 mg/mL, 10.0 mg/mL or 100 mg/mL concentrations of the compound based on active fraction. A volume 20 uL was subtracted to allow room for addition of acid or base to adjust pH. The solution pH was measured. The pH was then adjusted through addition of acid or base as necessary until the reading was in the 7.6 to 8 range. A final pH measurement was made after ensuring all the compound was in solution. The solution was injected onto LC-UV in 0.1 uL to 5 uL volume within less than half an hour after the time the sample was prepared. Elution was done using 0.1% TFA in water for mobile phase A and 0.085% TFA in methanol for mobile phase B on an Excel ACE 5 Super C18 2.1×100 mm column at 0.6 ml/min flow rate with 9 min gradient, 3.9 minute hold at 90% B and 18 minute run time. The absorption was measured at 220, 254 and 300 nm with a 4 nm bandwidth.

P99 = P99 (Enterobacter cloacae, UniProt P05364); assay: Ki, nitrocefin cleavage by purified enzyme, P99; format: biochemical; conditions: nitrocefin reporter substrate; read-out: Ki (P99, NCF)
Method: (§1) Purified enzymes were mixed with various concentrations of inhibitors in reaction buffer and incubated for 10 min at room temperature. Nitrocefin was added and substrate cleavage profiles were recorded at 490 nm every 10 sec for 10 min.

SHV-12 = SHV-12 (Klebsiella pneumoniae, UniProt P0AD64, E235K/G234S/L31Q); assay: Ki, nitrocefin cleavage by purified enzyme, SHV-12; format: biochemical; conditions: nitrocefin reporter substrate; read-out: Ki (SHV-12, NCF)
Method: as §1

KP1086 (OXA-48) = assay: Biapenem potentiation (MPC@1), KP1086; conditions: BLI with biapenem at 1 μg/mL
KPC-2 = KPC-2 (Klebsiella pneumoniae, UniProt Q9F663); assay: Ki, nitrocefin cleavage by purified enzyme, KPC-2; format: biochemical; conditions: nitrocefin reporter substrate; read-out: Ki (KPC-2, NCF)
Method: as §1

ec302 (TEM-10) [2] = assay: Tigemonam potentiation (MPC@4), ec302; format: cell-based
ECL1002 [3] = assay: Tigemonam potentiation (MPC@4), ECL1002; format: cell-based; conditions: BLI with tigemonam at 4 μg/mL
KP1010 (SHV-12) = assay: Tigemonam potentiation (MPC@4), KP1010; format: cell-based
CTX-M-14 = CTX-M-14 (Escherichia coli, UniProt Q9L5C7); assay: Ki, nitrocefin cleavage by purified enzyme, CTX-M-14; format: biochemical; conditions: nitrocefin reporter substrate; read-out: Ki (CTX-M-14, NCF)
Method: as §1

ec302 (TEM-10) [4] = assay: Aztreonam potentiation (MPC@4), ec302; format: cell-based; conditions: BLI with aztreonam at 4 μg/mL
Pa AmpC = Pa AmpC (Pseudomonas aeruginosa, UniProt P24735); assay: Ki, nitrocefin cleavage by purified enzyme, Pa AmpC; format: biochemical; conditions: nitrocefin reporter substrate; read-out: Ki (Pa AmpC, NCF)
Method: Ki values of inhibition of purified class A, C and D enzymes were determined spectrophotometrically using nitrocefin as reporter substrate. Purified enzymes were mixed with various concentrations of inhibitors in reaction buffer and incubated for 10 min at room temperature. Nitrocefin was added and substrate cleavage profiles were recorded at 490 nm every 10 sec for 10 min. These experiments confirmed that the described compounds are inhibitors with a broad-spectrum of activity towards various β-lactamases.

EC1010 (CMY-6) [5] = assay: Tigemonam potentiation (MPC@4), EC1010; format: cell-based; conditions: BLI with tigemonam at 4 μg/mL
OXA-48 = OXA-48 (Klebsiella pneumoniae, UniProt Q6XEC0); assay: Ki, nitrocefin cleavage by purified enzyme, OXA-48; format: biochemical; conditions: nitrocefin reporter substrate; read-out: Ki (OXA-48, NCF)
Method: as §1

ec308 (SHV-5) = assay: Tigemonam potentiation (MPC@4), ec308; format: cell-based
KP1009 (CTX-M-15) = assay: Tigemonam potentiation (MPC@4), KP1009; format: cell-based; conditions: BLI with tigemonam at 4 μg/mL
KP1004 (KPC-2) [6] = assay: Biapenem potentiation (MPC@1), KP1004; conditions: BLI with biapenem at 1 μg/mL
EC1010 (CMY-6) [7] = assay: organism not typed; format: cell-based
ECL1002 [8] = assay: Aztreonam potentiation (MPC@4), ECL1002; format: cell-based; conditions: BLI with aztreonam at 4 μg/mL
KP1004 (KPC-2) [9] = assay: Aztreonam potentiation (MPC@4), KP1004; format: cell-based; conditions: BLI with aztreonam at 4 μg/mL

KPC-2, sequence (Q9F663 25-293, looked up, species assumed): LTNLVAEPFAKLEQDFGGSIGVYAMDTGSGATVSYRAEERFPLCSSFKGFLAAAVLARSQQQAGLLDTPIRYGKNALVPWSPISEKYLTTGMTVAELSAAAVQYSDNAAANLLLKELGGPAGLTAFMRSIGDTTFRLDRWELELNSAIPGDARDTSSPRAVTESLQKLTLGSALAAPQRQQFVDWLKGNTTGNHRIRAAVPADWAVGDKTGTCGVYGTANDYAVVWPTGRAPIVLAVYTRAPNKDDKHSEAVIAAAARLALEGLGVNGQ
OXA-48, sequence (Q6XEC0 23-265, looked up, species assumed): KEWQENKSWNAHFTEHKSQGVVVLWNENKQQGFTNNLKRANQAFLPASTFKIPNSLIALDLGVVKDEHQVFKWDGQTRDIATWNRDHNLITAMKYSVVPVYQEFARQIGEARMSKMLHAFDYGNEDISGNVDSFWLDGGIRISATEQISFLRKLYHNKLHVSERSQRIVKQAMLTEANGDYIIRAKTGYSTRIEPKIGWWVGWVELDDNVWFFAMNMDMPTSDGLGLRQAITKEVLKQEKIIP
Pa AmpC, sequence (P24735 27-397): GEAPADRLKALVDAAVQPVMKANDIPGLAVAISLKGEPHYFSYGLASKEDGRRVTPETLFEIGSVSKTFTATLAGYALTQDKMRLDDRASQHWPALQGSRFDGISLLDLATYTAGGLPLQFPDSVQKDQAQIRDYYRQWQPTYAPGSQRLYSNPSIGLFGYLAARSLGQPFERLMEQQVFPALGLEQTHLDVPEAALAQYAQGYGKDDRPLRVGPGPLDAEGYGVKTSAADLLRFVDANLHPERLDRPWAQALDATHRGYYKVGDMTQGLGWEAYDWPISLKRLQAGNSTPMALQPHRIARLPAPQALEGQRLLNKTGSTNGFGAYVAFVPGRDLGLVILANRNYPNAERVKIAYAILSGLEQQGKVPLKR
CTX-M-14, sequence (Q9L5C7 29-291): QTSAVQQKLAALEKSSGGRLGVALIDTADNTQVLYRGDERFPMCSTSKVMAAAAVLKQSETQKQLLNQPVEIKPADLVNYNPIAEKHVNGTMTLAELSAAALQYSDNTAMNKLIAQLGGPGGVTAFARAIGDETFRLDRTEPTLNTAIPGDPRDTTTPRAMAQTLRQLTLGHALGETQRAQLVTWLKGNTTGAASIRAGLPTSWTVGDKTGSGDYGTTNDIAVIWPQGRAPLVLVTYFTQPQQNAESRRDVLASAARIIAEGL
P99, sequence (P05364 21-381): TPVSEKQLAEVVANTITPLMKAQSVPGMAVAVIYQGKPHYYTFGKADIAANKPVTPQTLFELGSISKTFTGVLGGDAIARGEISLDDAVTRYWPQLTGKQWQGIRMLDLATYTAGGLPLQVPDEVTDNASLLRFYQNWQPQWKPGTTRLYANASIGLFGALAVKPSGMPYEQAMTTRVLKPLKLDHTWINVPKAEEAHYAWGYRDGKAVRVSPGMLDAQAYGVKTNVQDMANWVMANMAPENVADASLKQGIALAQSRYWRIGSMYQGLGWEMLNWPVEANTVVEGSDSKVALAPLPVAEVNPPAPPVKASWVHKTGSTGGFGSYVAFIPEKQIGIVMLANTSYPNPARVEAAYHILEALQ
SHV-12, sequence (P0AD64 22-286 L31Q/G234S/E235K): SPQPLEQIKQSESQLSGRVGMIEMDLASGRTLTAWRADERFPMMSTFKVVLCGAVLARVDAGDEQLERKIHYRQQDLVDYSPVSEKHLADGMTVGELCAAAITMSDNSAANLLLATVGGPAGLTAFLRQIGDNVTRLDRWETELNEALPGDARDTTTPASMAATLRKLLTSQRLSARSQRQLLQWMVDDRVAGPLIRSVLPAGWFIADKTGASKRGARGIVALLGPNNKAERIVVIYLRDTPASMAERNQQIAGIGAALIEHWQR

Compound	TIG MPC4 CTX-M-14 KP1005 (KP1005 (CTX-M-14))	% Monomer in 1 mg/mL salt solution [1] [%]	Ki (P99) [nM]	Ki (SHV-12) [nM]	BPM MPC1 OXA-48 KP1086 (KP1086 (OXA-48))	Ki (KPC-2) [nM]	TIG MPC4 TEM-10 ec302 (ec302 (TEM-10) [2])	TIG MPC4 ECL1002 (ECL1002 [3])	TIG MPC4 SHV-12 KP1010 (KP1010 (SHV-12))	Ki (CTX-M-14) [nM]	AZT MPC4 TEM-10 ec302 (ec302 (TEM-10) [4])	Ki (Pa AmpC) [nM]	TIG MPC4 CMY-6 EC1010 (EC1010 (CMY-6) [5])	Ki (OXA-48) [nM]	TIG MPC4 SHV-5 ec308 (ec308 (SHV-5))	TIG MPC4 CTX-M-15 KP1009 (KP1009 (CTX-M-15))	BPM MPC1 KP1004 KPC-2 (KP1004 (KPC-2) [6])	AZT MPC4 CMY-6 EC1010 (EC1010 (CMY-6) [7])	AZT MPC4 ECL1002 (ECL1002 [8])	further results
NC(=O)CC(=O)N[C@H]1Cc2ccc(F)c(C(=O)O)c2OB1O [Compound 5, (R)-3-(3-amino-3-oxopropanamido)-7-fluoro-2-hydroxy-3,4-dihydro-2H-benzo[e][1,2]oxaborinine-8-carboxylic acid]	Y (MIC of 1 μg/mL to 10 μg/mL)	98.5	> 10	< 1	Y (MIC of 1 μg/mL to 10 μg/mL)	> 10	Z (key: X: MIC of less than 1 ng/mL; Y: MIC of 1 μg/mL to 10 μg/mL; Z: MIC of greater than 10 μg/mL)	X (MIC of less than 1 μg/mL)	X (key: X: MIC of less than 1 μg/mL; Y: MIC of 1 μg/mL to 10 μg/mL; Z: MIC of greater than 10 μg/mL)	< 1	Y (MIC of 1 μg/mL to 10 μg/mL)	> 10	X (MIC of less than 1 μg/mL)	< 1	X (key: X: MIC of less than 1 μg/mL; Y: MIC of 1 μg/mL to 10 μg/mL; Z: MIC of greater than 10 μg/mL)	X (MIC of less than 1 μg/mL)	X (MIC of less than 1 μg/mL)	Y (key: X: MIC of less than 1 ng/mL; Y: MIC of 1 μg/mL to 10 μg/mL; Z: MIC of greater than 10 μg/mL)	Y (MIC of 1 μg/mL to 10 μg/mL)	–
CNC(=O)CC(=O)N[C@H]1Cc2ccc(F)c(C(=O)O)c2OB1O [Compound 7, (R)-7-fluoro-2-hydroxy-3-(3-(methylamino)-3-oxopropanamido)-3,4-dihydro-2H-benzo[e][1,2]oxaborinine-8-carboxylic acid]	Y (MIC of 1 μg/mL to 10 μg/mL)	97.1	> 10	< 1	Y (MIC of 1 μg/mL to 10 μg/mL)	> 10	Z (key: X: MIC of less than 1 ng/mL; Y: MIC of 1 μg/mL to 10 μg/mL; Z: MIC of greater than 10 μg/mL)	X (MIC of less than 1 μg/mL)	X (key: X: MIC of less than 1 μg/mL; Y: MIC of 1 μg/mL to 10 μg/mL; Z: MIC of greater than 10 μg/mL)	< 1	Y (MIC of 1 μg/mL to 10 μg/mL)	> 10	X (MIC of less than 1 μg/mL)	1 to 10	X (key: X: MIC of less than 1 μg/mL; Y: MIC of 1 μg/mL to 10 μg/mL; Z: MIC of greater than 10 μg/mL)	X (MIC of less than 1 μg/mL)	X (MIC of less than 1 μg/mL)	Y (key: X: MIC of less than 1 ng/mL; Y: MIC of 1 μg/mL to 10 μg/mL; Z: MIC of greater than 10 μg/mL)	Y (MIC of 1 μg/mL to 10 μg/mL)	–
COc1ccc2c(c1C(=O)O)OB(O)[C@@H](NC(=O)CSC)C2 [Compound 12, (R)-2-hydroxy-7-methoxy-3-(2-(methylthio)acetamido)-3,4-dihydro-2H-benzo[e][1,2]oxaborinine-8-carboxylic acid]	X (MIC of less than 1 μg/mL)	98.2	> 10	< 1	Y (MIC of 1 μg/mL to 10 μg/mL)	> 10	Y (key: X: MIC of less than 1 ng/mL; Y: MIC of 1 μg/mL to 10 μg/mL; Z: MIC of greater than 10 μg/mL)	X (MIC of less than 1 μg/mL)	X (key: X: MIC of less than 1 μg/mL; Y: MIC of 1 μg/mL to 10 μg/mL; Z: MIC of greater than 10 μg/mL)	< 1	X (MIC of less than 1 ng/mL)	> 10	X (MIC of less than 1 μg/mL)	< 1	X (key: X: MIC of less than 1 μg/mL; Y: MIC of 1 μg/mL to 10 μg/mL; Z: MIC of greater than 10 μg/mL)	X (MIC of less than 1 μg/mL)	X (MIC of less than 1 μg/mL)	–	–	% Monomer in 10 mg/mL salt solution ([1]; 10 mg/mL aqueous salt solution): 95.5%; % Monomer in 100 mg/mL salt solution ([1]; 100 mg/mL aqueous salt solution): 96.5%
CSCC(=O)N[C@H]1Cc2ccc(SCC(N)=O)c(C(=O)O)c2OB1O [Compound 22, (R)-7-(2-amino-2-oxoethylthio)-2-hydroxy-3-(2-(methylthio)acetamido)-3,4-dihydro-2H-benzo[e][1,2]oxaborinine-8-carboxylic acid]	X (MIC of less than 1 μg/mL)	–	> 10	< 1	Z (MIC of greater than 10 μg/mL)	> 10	Y (key: X: MIC of less than 1 ng/mL; Y: MIC of 1 μg/mL to 10 μg/mL; Z: MIC of greater than 10 μg/mL)	Y (MIC of 1 μg/mL to 10 μg/mL)	X (key: X: MIC of less than 1 μg/mL; Y: MIC of 1 μg/mL to 10 μg/mL; Z: MIC of greater than 10 μg/mL)	< 1	Y (MIC of 1 μg/mL to 10 μg/mL)	> 10	X (MIC of less than 1 μg/mL)	–	X (key: X: MIC of less than 1 μg/mL; Y: MIC of 1 μg/mL to 10 μg/mL; Z: MIC of greater than 10 μg/mL)	X (MIC of less than 1 μg/mL)	X (MIC of less than 1 μg/mL)	Y (key: X: MIC of less than 1 ng/mL; Y: MIC of 1 μg/mL to 10 μg/mL; Z: MIC of greater than 10 μg/mL)	Y (MIC of 1 μg/mL to 10 μg/mL)	AZT MPC4 KPC-2 KP1004 (KP1004 (KPC-2) [9]): Y (MIC of 1 μg/mL to 10 μg/mL)
